Results reported in publication PMC5627750 (International Journal of Nanomedicine, 2017).

Legend:
in vivo = settings: male, Sprague-Dawley, rat, iv, 10 mg
[1] = assay type: physicochemical; settings: pH 7.4
MI rat models = test system: MI rat models; set-up: species or system Sprague-Dawley rats; settings: in vivo, iv, 10 mg/kg
[2] = male, Sprague-Dawley, rat, in vivo, 10 mg/kg

COc1cc2c(c(OC)c1OC)-c1c(cc3c(c1OC)OCO3)CC(C)C(C)C2 (centres unmarked) [Sch B solution, Schisandrin B]
AUC(0-inf) (in vivo): 13700 ± 1540 ng·h/mL | AUC(0-t) (in vivo): 12400 ± 1310 ng·h/mL | Vd (in vivo): 18.5 ± 2.61 L/kg | clearance (in vivo): 65.7 mL/min/kg | half-life (in vivo): 55.8 ± 5.4 min | time to complete release of Sch B [1]: ≤ 2 h | infarct size (MI rat models): 36.5% | time until cleared from the circulation [2]: ≤ 4 h
